This experiment has as its system lymphoblasts from autistic donors with mitochondrial dysfunction (A). To be noted: 500 μM copper (I) glycinate, measured by oxygen consumption rate, vs cells without the copper (I) complex, FIG. 17 panel B.

From patent publication US10596193B2, “Copper (I) complexes with glycine, pyruvate, and succinate” (C LAB PHARMA INTERNATIONAL, S.A., priority 2013, dated 2020) come the findings set out here.

Procedure: ATP-linked respiration, proton leak, maximal respiratory capacity, and reserve capacity were determined as measured by the cells' oxygen consumption rate.

In the case of `NCC(=O)[O-].[Cu+]` [copper (I) glycinate], the proton leak result is given as “significantly reduced proton leak”.
